# Measurements as given in patent US20140045809A1, “CORROLES FOR NEUROPROTECTION AND NEURORESCUE” (priority 2008, published 2014).
# Like-named read-outs stand apart in the source and are kept apart here.
# Experiments:
# clonal beta cell lines = test: Toxicity of corrole alone (without H2O2) on clonal beta cell lines; assay type: cell-based; conditions: without H2O2, concentrations up to 50 μM
# SH-SY5Y cells [1] = assay type: cell-based
# Method: Human neuroblastoma cell line was also examined under conditions similar to RIN-m cells to reveal the corrole's ability to prevent neuronal death caused by oxidative stress. SH-SY5Y cells were plated in microtiter plates (96 wells) in DMEM-Eagle/F-12(HAM) (1:1), containing 10% FCS. To examine neuroprotective effect, SH-SY5Y cells were treated for 30 min with corroles 1C-Fe and 5C-Fe (20 and 50 μM) before addition of 20 μM H2O2 for 24 h. To examine neurorescue, SH-SY5Y cells were first exposed to 20 μM H2O2 for 0.5 h, 1.5 h or 3 h, followed by the addition of corroles 1C-Fe and 5C-Fe (20 μM) and incubation for 24 h.
# Compounds 1C-Fe and 1P-Fe (1-50 μM) were added 30 min before insult with H2O2 (200 μM), followed by a subsequent 24 h period. The neuroprotective effects of the iron corrole 1C-Fe and its structurally analogous iron porphyrin 1P-Fe, against H2O2-induced neurotoxicity were investigated using MTT reduction assay and cell death ELISA, based on the use of mouse monoclonal antibodies to detect free histones and fragmented DNA (F. Hollderieder et al, Biochemica 2002, 1, 25). […] In light of the observed neuroprotective effect of corrole 1C-Fe, we attempted to determine the length of the delay between H2O2 exposure and corrole 1C-Fe treatment that would still afford neuroprotection. H2O2 was administered to SH-SY5Y cells and corrole 1C-Fe was then added for 0.5-1.5 h thereafter. […]
# INS-1E cells = test: Protection of INS-1E cells against SIN-1 toxicity (MTT); assay type: cell-based, rat; conditions: 10 μM, 30 min before SIN-1 (500 or 600 μM), 24 h
# Method: INS-1E cells or RIN-m cells were cultured in RPMI with low serum content (2% FCS), placed in microtiter plates (96 wells) at a density of 2.5×10^4 cells/well and allowed to attach for 24 h before treatment. Corroles 1C-Fe and 5C-Fe (10 μM) were added 30 min prior to insult with the nitric oxide donor SIN-1 (500 or 600 μM) for a subsequent 24 h period. Cell viability was evaluated by a colorimetric assay for mitochondrial function using 3-(4,5-dimethylthiazol-2-yl)-2,5-diphenyltetrazolium bromide (MTT test), and expressed as percentage of untreated control. Values higher than 100% reflect increased mitochondrial activity induced by the drug. The results represent the mean±SEM of three independent experiments performed under the same conditions.
# SH-SY5Y cells [2] = assay type: cell-based; conditions: up to 50 μM; data not shown
# [3] = Peroxynitrite decomposition rates by manganese corroles (Example 2); assay type: biochemical; conditions: 385 μM peroxynitrite, pH 7.4, 25° C., absorbance at 302 nm; Table 2
# Method: The investigations were performed by examining the decay of 385 μM peroxynitrite at pH 7.4 and 25° C. in the presence and absence of various amounts of Mn corrole catalysts 2C-Mn, 2C′-Mn, 2C″-Mn, 3C-Mn and 4C-Mn. The differences between 2C-Mn, 2C′-Mn, and 2C″-Mn is in the identity of the 10-aryl group, which is C6F5, para-anisyl, and phenyl, respectively. The results (one example using 4C-Mn is shown in FIG. 1) were obtained by monitoring changes in absorbance at 302 nm, the λmax of peroxynitrite. The catalytic performances of five of the above compounds were tested; and the thus elucidated kcat values are presented in Table 2. Importantly, in sharp contrast with the corroles, none of the structurally similar manganese (III) porphyrin complexes affected the decomposition of peroxynitrite by any extent (not shown).
# transferrin = transferrin (Homo sapiens, UniProt P02787); test: Binding of corrole complexes to transferrin; conditions: preliminary experiments
# From the text: Issues regarding biodistribution, transport mechanisms, accumulation in specific organs, and the eventual elimination of administered compounds are among the prime concerns when it comes to real life utilization of potential drugs. This can be addressed by several and quite different means, including in vitro, in vivo and ex-vivo examinations. One way to predict distribution is via examination of the binding of the corroles to circulating proteins that might act as transporters, similar to experiment performed previously by the inventors with metal complexes of corrole 1C (Scheme 1), which spontaneously form tightly bound non-covalent bioconjugates with HDL (Haber et al., 2007), albumin (Mahammed et al., 2004), and transferrin (Haber and Gross. 2007) (listed in increasing order of affinity), as well as with semi-synthetic proteins (Agadjanian et al., 2006). […] A more direct approach relies on the strong fluorescence of corroles that are not chelated by transition metals (no metal such as in corroles 1C and 2C, or using corrole Ga/Al complexes such as 1C-Ga). This feature is used for testing cell entry via confocal microscopy (Agadjanian et al., 2006), without the need of attaching a fluorescent tag. Furthermore, it may even be used for whole animal imaging purposes, as shown in Example 4 hereinabove. […]
# Sequence of transferrin (P02787 20-698, species assumed): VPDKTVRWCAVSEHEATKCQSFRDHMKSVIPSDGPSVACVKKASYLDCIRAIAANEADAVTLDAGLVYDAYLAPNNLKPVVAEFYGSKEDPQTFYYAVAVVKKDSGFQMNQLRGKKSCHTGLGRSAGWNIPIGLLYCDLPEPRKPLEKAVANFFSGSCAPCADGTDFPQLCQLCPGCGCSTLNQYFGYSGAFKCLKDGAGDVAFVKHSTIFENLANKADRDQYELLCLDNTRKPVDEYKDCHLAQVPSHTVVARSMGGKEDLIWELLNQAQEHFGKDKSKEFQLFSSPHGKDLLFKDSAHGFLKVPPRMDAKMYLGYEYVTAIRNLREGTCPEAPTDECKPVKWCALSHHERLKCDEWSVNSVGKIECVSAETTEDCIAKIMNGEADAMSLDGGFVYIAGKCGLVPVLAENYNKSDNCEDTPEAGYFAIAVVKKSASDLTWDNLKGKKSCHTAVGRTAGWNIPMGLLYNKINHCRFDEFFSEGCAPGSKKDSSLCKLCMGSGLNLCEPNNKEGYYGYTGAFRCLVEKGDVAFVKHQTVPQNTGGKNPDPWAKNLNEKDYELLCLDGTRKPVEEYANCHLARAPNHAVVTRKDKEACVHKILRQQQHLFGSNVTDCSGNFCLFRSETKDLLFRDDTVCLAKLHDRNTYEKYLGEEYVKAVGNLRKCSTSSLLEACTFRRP
SMILES,toxicity when given alone (clonal beta cell lines),"neurorescue after H2O2 insult (SH-SY5Y cells [1]; 20 μM H2O2 for 0.5, 1.5 or 3 h, then 20 μM corrole, 24 h)","cell viability (MTT reduction) (SH-SY5Y cells [1]; 1-20 μM, 30 min before 200 μM H2O2, 24 h)","neuroprotective effect, corrole added after H2O2 (SH-SY5Y cells [1]; 1 and 1.5 h post-H2O2 insult, extent of protection gradually decreased)","neuroprotective effect against H2O2-induced toxicity (SH-SY5Y cells [1]; 20 and 50 μM, 30 min before 20 μM H2O2, 24 h)","cell death (ELISA detection assay) (SH-SY5Y cells [1]; 30 min before 200 μM H2O2, 24 h)","neuroprotective effect, corrole added after H2O2 (SH-SY5Y cells [1]; 0.5 h post-H2O2 insult)","protection from H2O2-induced neurotoxicity compared with porphyrin (SH-SY5Y cells [1]; all concentrations studied (1-50 μM), 200 μM H2O2)",protective effect against SIN-1 induced toxicity (MTT) (INS-1E cells),preventing H2O2-mediated cytotoxicity (SH-SY5Y cells [2]),"kcat, peroxynitrite decomposition rate [3] [M⁻¹ s⁻¹]",binding to transferrin (transferrin)
"O=S(=O)(O)c1cc2[n]3c1C(c1c(F)c(F)c(F)c(F)c1F)=C1C=CC4=[N+]1[Fe-]31[n]3c(cc(S(=O)(=O)O)c3-2)C(c2c(F)c(F)c(F)c(F)c2F)=c2ccc([n]21)=C4c1c(F)c(F)c(F)c(F)c1F (stereo not drawn) [1C-Fe, 2,17-bis(sulfonato)-5,10,15-tris(pentafluorophenyl)-corrolato iron(III)]",shows no toxicity,instigated neurorescue,dose-dependently increased cell viability,significantly protected,dose-dependent neuroprotective effect,significantly and dose-dependently protected,remained unaltered,displayed superiority over porphyrin 1P-Fe,marked protective effect,–,–,–
"C[n+]1ccc(C2=C3C=CC4=[N+]3[Mn-]35[n]6c2ccc6-c2ccc([n]23)C(c2cc[n+](C)cc2)=c2ccc([n]25)=C4c2c(F)c(F)c(F)c(F)c2F)cc1.[I-].[I-] (stereo not drawn) [2C-Mn, 5,15-bis(4-N-methyl-pyridilium)-10-pentafluorophenyl-corrolato manganese(III) diiodide salt]",–,–,–,–,–,–,–,–,–,not effective,150000,still do so for transferrin
